# Results from patent publication US7816353B2 (Exelixis, Inc., priority 2003, dated 2010).
# Key:
# Assay type in all cases: biochemical
# [1] = biological target: T1, Akt1 (Homo sapiens, UniProt P31749); assay: Akt1 Kinase Assay (Luciferase-Coupled Chemiluminescent Kinase assay, LCCA); details: human Akt1 kinase domain residues R144-A480, activated with PDK1; 1 μM ATP; read-out: Akt-1 IC50
# T1 construct: made in house
# Method in brief: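 Baculovirus-expressed PDK1-activated Akt1 kinase domain (R144-A480), 1.3 nM, with 5 μM crosstide and 1 μM ATP in Tris pH 7.5 with MgCl2/MnCl2, 3 h at ambient temperature. Remaining ATP read by luciferase-luciferin chemiluminescence; 10-point IC50 from four-parameter fit.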
# [2] = biological target: T2, PDK1 (Homo sapiens, UniProt O15530); assay: PDK1 Kinase Assay (Luciferase-Coupled Chemiluminescent Kinase assay, LCCA); details: human PDK1 kinase domain residues M51-T359; 0.5 μM ATP; read-out: PDK-1 IC50
# T2 construct: human PDK1 kinase domain residues M51-T359; made in house
# T2 sequence (O15530 51-359): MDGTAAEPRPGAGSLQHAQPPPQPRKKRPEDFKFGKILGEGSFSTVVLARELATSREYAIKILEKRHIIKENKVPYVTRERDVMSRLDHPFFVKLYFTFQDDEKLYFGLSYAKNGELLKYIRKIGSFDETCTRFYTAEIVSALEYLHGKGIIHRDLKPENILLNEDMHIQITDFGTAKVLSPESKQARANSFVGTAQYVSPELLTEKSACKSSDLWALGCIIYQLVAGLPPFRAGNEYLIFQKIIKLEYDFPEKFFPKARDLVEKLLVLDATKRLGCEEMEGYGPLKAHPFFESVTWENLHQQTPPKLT
# Procedure: Kinase activity and compound inhibition are investigated using one or more of the three assay formats described below. The ATP concentrations for each assay are selected to be close to the Michaelis-Menten constant (KM) for each individual kinase. Dose-response experiments are performed at 10 different inhibitor concentrations in a 384-well plate format. The data are fitted to four-parameter equation (2) below; where Y is the observed signal, X is the inhibitor concentration, Min is the background signal in the absence of enzyme (0% enzyme activity), Max is the signal in the absence of inhibitor (100% enzyme activity), IC50 is the inhibitor concentration at 50% enzyme inhibition and H represents the empirical Hill's slope to measure the cooperativity. Typically H is close to unity. Y=Min+(Max−Min)/(1+(X/IC50)^H) Equation (2) p70S6 Kinase Assay
# Biochemical activity of PDK1 kinase was assessed using a Luciferase-Coupled Chemiluminescent Kinase assay (LCCA) format. Kinase activity was measured as the percent ATP remaining following the kinase reaction. Remaining ATP was detected by luciferase-luciferin-coupled chemiluminescence. Specifically, the reaction was initiated by mixing test compounds, 0.5 μM ATP, 0.6 μM PDKtide peptide and 6 nM PDK1 (baculovirus expressed human PDK1 kinase domain residues M51-T359) in a 20 uL assay buffer (20 mM Hepes pH 7.5, 1 mM CaCl2, 0.03% CHAPS, 2 mM DTT). The mixture is incubated at ambient temperature for 3 hours after which 20 μL luciferase-luciferin mix is added and the chemiluminescent signal read using a Wallac Victor2 reader. The luciferase-luciferin mix consists of 50 mM HEPES, pH 7.8, 8.5 μg/mL oxalic acid (pH 7.8), 5 (or 50) mM DTT, 0.4% Triton X-100, 0.25 mg/mL coenzyme A, 63 uM AMP, 28 μg/mL luciferin and 40,000 units/mL luciferase.
# [3] = biological target: T3, p70S6K (Homo sapiens, UniProt P23443, T412E); assay: p70S6 Kinase Assay (Luciferase-Coupled Chemiluminescent Kinase assay, LCCA); details: human p70S6 kinase domain residues 1-421, T412E; 5 μM ATP; read-out: p70S6K IC50
# T3 construct: human p70S6 kinase domain residues 1-421, containing a T412E mutation; made in house
# Method in brief: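 Luciferase-coupled chemiluminescence measured percent ATP remaining after the 2 h kinase reaction at ambient temperature, with ATP near the kinase's KM. Ten inhibitor concentrations were tested. IC50 was obtained from a Hill-equation fit.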
# T1 sequence (P31749 144-480): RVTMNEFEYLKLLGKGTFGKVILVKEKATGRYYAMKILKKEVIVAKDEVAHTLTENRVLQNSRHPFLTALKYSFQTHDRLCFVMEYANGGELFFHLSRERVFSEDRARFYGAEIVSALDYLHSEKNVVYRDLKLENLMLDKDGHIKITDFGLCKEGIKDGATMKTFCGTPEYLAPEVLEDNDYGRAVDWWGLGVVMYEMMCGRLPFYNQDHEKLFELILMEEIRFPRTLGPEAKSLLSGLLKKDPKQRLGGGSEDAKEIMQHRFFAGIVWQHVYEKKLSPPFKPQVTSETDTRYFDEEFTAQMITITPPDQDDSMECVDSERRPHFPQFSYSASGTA
# T3 sequence (P23443 1-421 T412E): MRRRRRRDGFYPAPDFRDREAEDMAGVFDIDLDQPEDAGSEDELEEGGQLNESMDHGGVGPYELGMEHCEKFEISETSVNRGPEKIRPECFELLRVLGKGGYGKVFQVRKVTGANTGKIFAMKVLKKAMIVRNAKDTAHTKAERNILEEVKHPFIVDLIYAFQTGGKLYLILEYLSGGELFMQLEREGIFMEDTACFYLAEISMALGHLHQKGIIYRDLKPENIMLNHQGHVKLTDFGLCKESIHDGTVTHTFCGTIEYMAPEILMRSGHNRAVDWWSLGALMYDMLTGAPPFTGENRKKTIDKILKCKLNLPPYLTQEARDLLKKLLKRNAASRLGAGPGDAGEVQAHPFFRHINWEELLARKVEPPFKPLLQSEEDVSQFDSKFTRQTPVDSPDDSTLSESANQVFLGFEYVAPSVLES
IC50 [1] [nM],IC50 [2] [nM],IC50 [3] [nM],SMILES
> 2000,> 2000,< 50,"CCOC(=O)c1sc(NC(=O)CSc2nc(N)nc(SC)c2C#N)c(C#N)c1C [Example 28, ethyl 5-[({[2-amino-5-cyano-6-(methylthio)pyrimidin-4-yl]thio}acetyl)amino]-4-cyano-3-methylthiophene-2-carboxylate]"
> 2000,> 2000,50 to 500,"CSc1nc(N)nc(N[C@@H](C)C(=O)Nc2cc(C(=O)NO)cc(C(F)(F)F)c2)c1C#N [Example 141, 3-({N-[2-amino-5-cyano-6-(methylthio)pyrimidin-4yl]-L-alanyl}amino)-N-hydroxy-5-(trifluoromethyl)benzamide]"
> 2000,> 2000,< 50,"CSc1nc(N)nc(SCC(=O)Nc2ccc(F)c(C(F)(F)F)c2)c1C#N [Example 31, 2-{[2-amino-5-cyano-6-(methylthio)pyrimidin-4-yl]thio}-N-[4-fluoro-3-(triuoromethyl)phenyl]acetamide]"
> 2000,> 2000,< 50,"CCOc1nc(N)nc(N(C)[C@@H](CCCCN)C(=O)Nc2cccc(C(F)(F)F)c2)c1C#N [Example 136, N~2~-[2-amino-5-cyano-6-(ethyloxy)pyrimidin-4-yl]-N~2~-methyl-N-[3-(trifluoromethyl)phenyl]-L-lysinamide]"
> 2000,> 2000,< 50,"CSc1nc(N)nc(N(C)[C@@H](C)C(=O)Nc2cc(C(=O)NCCN(C)C)cc(C(F)(F)F)c2)c1C#N [Example 130, 3-({N-[2-amino5-cyano-6-(methylthio)pyrimidin-4-yl]-N-methyl-L-alanyl}amino)-N-[2-(dimethylamino)ethyl]-5-(trifluoromethyl)benzamide]"
> 2000,> 2000,< 50,CSc1cc(OCC(=O)Nc2cccc(C(F)(F)F)c2)nc(N)n1
> 2000,> 2000,< 50,"CSc1nc(N)nc(N(C)[C@@H](C)C(=O)Nc2cc(C(=O)NCCN3CCOCC3)cc(C(F)(F)F)c2)c1C#N [Example 135, 3-({N-[2-amino-5-cyano-6-(methylthio)pyrimidin-4-yl]-N-methyl-L-alanyl}amino)-N-(2-morpholin-4-ylethyl)-5-(trifluoromethyl)benzamide]"
> 2000,> 2000,< 50,"Nc1cc(SCC(=O)Nc2ccc(F)c(C(F)(F)F)c2)nc(N)n1 [Example 32, 2-[(2,6-diaminopyrimidin-4-yl)thio]-N-[4-fluoro-3-(trifluoromethyl)phenyl]acetamide]"
